Article PMC6332318, “Synthetic Development of New 3-(4-Arylmethylamino)butyl-5-arylidene-rhodanines under Microwave Irradiation and Their Effects on Tumor Cell Lines and against Protein Kinases” (Molecules, 2015)

What was measured:
[1] = molecular target: T1, HsHaspin (Homo sapiens, UniProt Q8TF76); test: protein kinase assay, [γ-33P] ATP; assay type: biochemical
T1 construct: HsHaspin-kd aa 470 to 798; GST (from vector pGEX-6P-3; tag and N-terminal position are own knowledge of the vector) (N); made in house; host or cells: Escherichia coli BL21-KRX
T1 sequence (Q8TF76 470-798): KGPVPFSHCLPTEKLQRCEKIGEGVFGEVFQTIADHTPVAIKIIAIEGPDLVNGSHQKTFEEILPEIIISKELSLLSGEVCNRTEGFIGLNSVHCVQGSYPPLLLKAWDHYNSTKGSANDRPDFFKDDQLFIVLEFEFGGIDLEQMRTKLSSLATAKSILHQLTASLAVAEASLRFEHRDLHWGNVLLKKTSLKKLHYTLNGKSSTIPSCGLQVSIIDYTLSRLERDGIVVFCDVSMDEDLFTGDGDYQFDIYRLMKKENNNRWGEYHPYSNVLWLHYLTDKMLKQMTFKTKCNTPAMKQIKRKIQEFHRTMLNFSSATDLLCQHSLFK
Procedure: Then, we evaluated the intermediates salts 6a–f and fourteen final compounds 9a–n on four protein kinases: HsCDK5-p25 (cyclin-dependant kinase 5-p25), SsGSK-3α/β (glycogen synthase kinase-3α/β) SsCK1δ/ε (Caseine kinase 1) and HsHaspin as an essential mitotic kinase. […] IC50 values were determined from dose-response curves.
(§1) ATP (3000 Ci/mmol; 10 mCi/mL) in a final volume of 30 µL. After 30 min incubation at 30 °C, the reaction was stopped by harvesting, using a FilterMate harvester (Packard, Meriden, CT, USA), onto P81 phosphocellulose papers (GE Healthcare, Velizy-Villacoublay, France) which were washed in 1% phosphoric acid. Scintillation fluid was added and the radioactivity measured in a Packard counter. Blank values were subtracted and activities calculated as pmoles of phosphate incorporated during the 30 min incubation. The activities were expressed in a percentage of the maximal activity, i.e., in the absence of inhibitors. Controls were performed with appropriate dilutions of DMSO. CK1 and Haspin peptide substrates were obtained from Proteogenix (Oberhausbergen, France).
Haspin kinase domain (HsHaspin-kd aa 470 to 798) encoding cDNA, obtain by RT-PCR, was cloned into pGex-6P-3. The fusion protein was expressed in Escherichia coli strain BL21-KRX (Promega, Madison, WI, USA) and purified by affinity chromatography on glutathione-agarose beads (Sigma). Haspin-kd activity was assayed with 3 µM Histone H3 (1-21) peptide, a specific Haspin substrate, ([…]), in Buffer H (MOPS 25 mM pH 7.5; 10 mM MgCl2).

[2] = molecular target: T2, HsCDK5/p25 (Homo sapiens, UniProt Q00535); test: protein kinase assay, [γ-33P] ATP; assay type: biochemical
T2 construct: made in house
T2 sequence (Q00535 whole entry): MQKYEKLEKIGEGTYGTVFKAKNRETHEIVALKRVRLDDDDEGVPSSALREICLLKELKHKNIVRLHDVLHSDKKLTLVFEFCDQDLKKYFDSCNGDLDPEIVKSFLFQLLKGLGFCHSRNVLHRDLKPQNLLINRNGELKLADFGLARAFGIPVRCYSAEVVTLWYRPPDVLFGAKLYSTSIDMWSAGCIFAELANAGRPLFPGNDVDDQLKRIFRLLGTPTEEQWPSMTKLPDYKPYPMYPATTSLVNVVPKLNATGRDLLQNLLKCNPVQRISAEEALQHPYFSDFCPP
T2 sequence (Q15078 99-307 partner limits assumed): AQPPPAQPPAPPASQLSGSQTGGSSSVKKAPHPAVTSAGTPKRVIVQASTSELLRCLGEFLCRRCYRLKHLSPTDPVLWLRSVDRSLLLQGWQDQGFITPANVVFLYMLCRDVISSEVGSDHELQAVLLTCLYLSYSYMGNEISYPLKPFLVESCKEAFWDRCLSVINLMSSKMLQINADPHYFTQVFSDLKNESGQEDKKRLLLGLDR
Procedure: Then, we evaluated the intermediates salts 6a–f and fourteen final compounds 9a–n on four protein kinases: HsCDK5-p25 (cyclin-dependant kinase 5-p25), SsGSK-3α/β (glycogen synthase kinase-3α/β) SsCK1δ/ε (Caseine kinase 1) and HsHaspin as an essential mitotic kinase. All assays were run in the presence of 15 μM of ATP and appropriate substrates. IC50 values were determined from dose-response curves. Concerning the library of the fourteen (5Z) 3-(4-arylmethylamino)butyl-5-arylidene-2-thioxo-1,3-thiazolidine-4-ones 9a–n and also the six diamines salts 6a–f, the results are given in Table 3. […] It is interesting to note that these two compounds are respectively substituted with an hydroxyl function on para-position of the 5-arylidene moiety and also with a similar bulky group (1,3-benzodioxol-5-yl for 9j and 2,3-dihydro-benzo[1,4]dioxin-6-yl for 9n) on the arylmethylamino moiety grafted on the N-3 butyl chain.
as §1, with “Kinase activities for each enzyme were assayed in buffer A (25 mM Tris-HCl pH 7.5, 10 mM MgCl2, 1 mM EGTA, 1 mM DTT, 50 µg/mL Heparin, BSA 0.15 mg/mL) or B (60 mM β-glycerophosphate, 30 mM p-Nitrophenylphosphate, 25 mM MOPS, 5 mM EGTA, 15 mM MgCl2, 1 mM DTT, 0.1 mM Na vanadate), with their corresponding substrates, in the presence of 15 µM [γ-^33P] ATP” for “ATP”
CDK5/p25 (human, recombinant) was prepared as previously described. […]

[3] = system: panel of seven representative tumoral cell lines; test: in vitro inhibition of cell proliferation, whole panel; assay type: cell-based; conditions: all cell lines of the panel, without selectivity; read-out: IC50, moderate antitumor activities in all cell lines of the panel
Procedure: As an initial effort to investigate their in vitro bioactivity, the new synthesized 3-(4-arylmethylamino)butyl-2-thioxo-1,3-thiazolidine-4-one 9a–n and also their precursors 6a–f were evaluated for their in vitro inhibition of cell proliferation. For this study, we used a panel of seven representative tumoral cell lines, namely HuH7 D12 (differential hepato cellular carcinoma), Caco 2 (differentiating colorectal adenocarcinoma), MDA-MBD231 ([…]), HCT 116 (actively proliferating colorectal adenocarcinoma), PC3 (prostate carcinoma), NCI-H727 (lung carcinoma), HaCat keratinocyte and, diploid skin fibroblasts as normal cell lines for control.
Skin diploid fibroblastic cells were provided by BIOPREDIC International Company (Rennes, France). Caco2 (Ref ECACC: 86010202), Huh-7D12 (Ref ECACC: 01042712), MDA-MB-231 (Ref ECACC: 92020424), HCT-116 (Ref ECACC: 91091005), PC3 (Ref ECACC: 90112714), NCI-H727 (Ref ECACC: 94060303) cell lines were obtained from the ECACC collection and HaCaT (from Cell Lines Service, Eppelheim, Germany). Cells were grown according to ECACC recommendations. […] Cells were fixed in cooled solution of 90% ethanol/5% acetic acid, nuclei were stained with Hoechst 3342 (Sigma) and counted using automated imaging analysis (Cellomics Arrayscan VTI/HCS Reader, Thermo/Scientific, Waltham, MA, USA). The IC50 were graphically determined.

Row | IC50 [1] [µM] | IC50 [2] [µM] | IC50 [3] [µM] | Compound
1 | > 10 | > 10 |  | O=C1/C(=C/c2ccc(O)cc2)SC(=S)N1CCCCNCc1ccc2c(c1)OCO2 [Compound 9j, (5Z)3-[4-(1,3-Benzodioxol-5-ylmethylamino)butyl]-5-(4-hydroxy-benzylidene)-2-thioxo-1,3-thiazolidin-4-one]
2 | > 10 | 1.3 |  | O=C1/C(=C/c2ccc3c(c2)OCCO3)SC(=S)N1CCCCNCc1ccc2c(c1)OCO2 [Compound 9i, (5Z)3-[4-(1,3-Benzodioxol-5-ylmethylamino)butyl]-5-(2,3-dihydro-1,4-benzodioxin-6-ylmethylene)-2-thioxo-1,3-thiazolidin-4-one]
3 | > 10 |  |  | COc1cc(/C=C2\SC(=S)N(CCCCNCc3ccc4c(c3)OCCO4)C2=O)ccc1O [Compound 9n, (5Z)3-[4-(2,3-Dihydro-benzo[1,4]dioxin-6-ylmethylamino)butyl]-5-(4-hydroxy-3-methoxybenzylidene)-2-thioxo-1,3-thiazolidin-4-one]
4 | > 10 | 1.1 | 10 to 17 | O=C1/C(=C/c2ccc3c(c2)OCO3)SC(=S)N1CCCCNCc1ccc2c(c1)OCO2 [Compound 9h, (5Z)3-[4-(1,3-Benzodioxol-5-ylmethylamino)butyl]-5-(1,3-benzodioxol-5-ylmethylene)-2-thioxo-1,3-thiazolidin-4-one]
